# Measurements: ChEMBL document CHEMBL2150937, “Elaiomycins D-F, antimicrobial and cytotoxic azoxides from Streptomyces sp. strain HKI0708” (J Nat Prod, 2012)
# pIC50: −log10 of the molar value.
# Legend:
# Aspergillus fumigatus = experiment: Antifungal activity against Aspergillus fumigatus ATCC 46645 assessed as zone of inhibition at 50 ug/disc after 24 hrs by agar diffusion assay; format: functional; details: ATCC 46645, 24 h, read-out: IZ
# Staphylococcus aureus [1] = experiment: Antibacterial activity against methicillin-resistant Staphylococcus aureus 134/93 R9 assessed as zone of inhibition at 50 ug/disc after 24 hrs by agar diffusion assay; format: functional; details: 134/93 R9, 24 h, read-out: IZ
# Pseudomonas aeruginosa [2] = experiment: Antibacterial activity against Pseudomonas aeruginosa K 799/61 B9 assessed as zone of inhibition at 50 ug/disc after 24 hrs by agar diffusion assay; format: functional; details: K 799/61 B9, 24 h, read-out: IZ
# Pseudomonas aeruginosa [3] = experiment: Antibacterial activity against Pseudomonas aeruginosa SG 137 B7 assessed as zone of inhibition at 50 ug/disc after 24 hrs by agar diffusion assay; format: functional; details: SG 137 B7, 24 h, read-out: IZ
# [4] = Cytotoxicity against human MAXF 401NL cells by propidium iodide-based fluorescence assay; format: functional, cell-based
# [5] = Cytotoxicity against human OVXF 899L cells by propidium iodide-based fluorescence assay; format: functional, cell-based
# HeLa = experiment: Cytotoxicity against human HeLa cells; format: functional
# [6] = Cytotoxicity against human PAXF 1657L cells by propidium iodide-based fluorescence assay; format: functional, cell-based
# [7] = Cytotoxicity against human UXF 1138L cells by propidium iodide-based fluorescence assay; format: functional, cell-based
# Candida albicans = experiment: Antifungal activity against Candida albicans H8 assessed as zone of inhibition at 50 ug/disc after 24 hrs by agar diffusion assay; format: functional; details: H8, 24 h, read-out: IZ
# [8] = Cytotoxicity against human LXFA 629L cells by propidium iodide-based fluorescence assay; format: functional, cell-based
# Penicillium chrysogenum = experiment: Antifungal activity against Penicillium notatum JP36 P1 assessed as zone of inhibition at 50 ug/disc after 24 hrs by agar diffusion assay; format: functional; details: JP36 P1, 24 h, read-out: IZ
# Bacillus subtilis = experiment: Antibacterial activity against Bacillus subtilis 6633 B1 assessed as zone of inhibition at 50 ug/disc after 24 hrs by agar diffusion assay; format: functional; details: 6633 B1, 24 h, read-out: IZ
# HUVEC = experiment: Antiproliferative activity against HUVEC; format: functional; details: Homo sapiens
# [9] = Cytotoxicity against human GXF251L cells by propidium iodide-based fluorescence assay; format: functional, cell-based; details: GXF 251L
# Aspergillus niger = experiment: Antifungal activity against Aspergillus niger DSM 737 assessed as zone of inhibition at 50 ug/disc after 24 hrs by agar diffusion assay; format: functional; details: DSM 737, 24 h, read-out: IZ
# Mycolicibacterium vaccae = experiment: Antibacterial activity against Mycobacterium vaccae 10670 M4 assessed as zone of inhibition at 50 ug/disc after 24 hrs by agar diffusion assay; format: functional; details: 10670 M4, 24 h, read-out: IZ
# Staphylococcus aureus [10] = experiment: Antibacterial activity against Staphylococcus aureus 511 B3 assessed as zone of inhibition at 50 ug/disc after 24 hrs by agar diffusion assay; format: functional; details: 511 B3, 24 h, read-out: IZ
# [11] = Cytotoxicity against human PRXF 22Rv1 cells by propidium iodide-based fluorescence assay; format: functional, cell-based, CWR22R
# [12] = system: Sporobolomyces salmonicolor; experiment: Antifungal activity against Sporidiobolus salmonicolor 549 H4 assessed as zone of inhibition at 50 ug/disc after 24 hrs by agar diffusion assay; format: functional; details: 549 H4, 24 h, read-out: IZ
# [13] = Cytotoxicity against human RXF 486L cells by propidium iodide-based fluorescence assay; format: functional, cell-based
# Aspergillus terreus = experiment: Antifungal activity against amphotericin-resistant Aspergillus terreus DSM 826 assessed as zone of inhibition at 50 ug/disc after 24 hrs by agar diffusion assay; format: functional; details: DSM 826, 24 h, read-out: IZ
# [14] = Cytotoxicity against human PXF 1752L cells by propidium iodide-based fluorescence assay; format: functional, cell-based
# [15] = Cytotoxicity against human CXF HT29 cells by propidium iodide-based fluorescence assay; format: functional, cell-based; details: HT-29
# [16] = Cytotoxicity against human MEXF 462NL cells by propidium iodide-based fluorescence assay; format: functional, cell-based
# K562 = experiment: Antiproliferative activity against human K562 cells; format: functional
# Enterococcus faecalis = experiment: Antibacterial activity against vancomycin-resistant Enterococcus faecalis 1528 R10 assessed as zone of inhibition at 50 ug/disc after 24 hrs by agar diffusion assay; format: functional; details: 1528 R10, 24 h, read-out: IZ
# [17] = Cytotoxicity against human LXFL 529L cells by propidium iodide-based fluorescence assay; format: functional, cell-based
# Escherichia coli = experiment: Antibacterial activity against Escherichia coli 458 B4 assessed as zone of inhibition at 50 ug/disc after 24 hrs by agar diffusion assay; format: functional; details: 458 B4, 24 h, read-out: IZ
SMILES,zone of inhibition at 50 µg/disc (Aspergillus fumigatus) [mm],zone of inhibition at 50 µg/disc (Staphylococcus aureus [1]) [mm],zone of inhibition at 50 µg/disc (Pseudomonas aeruginosa [2]) [mm],zone of inhibition at 50 µg/disc (Pseudomonas aeruginosa [3]) [mm],pIC50 [4],pIC50 [5],CC50 (HeLa) [µg/mL],pIC50 [6],zone of inhibition at 50 µg/disc (Candida albicans) [mm],zone of inhibition at 50 µg/disc (Penicillium chrysogenum) [mm],zone of inhibition at 50 µg/disc (Bacillus subtilis) [mm],GI50 (HUVEC) [µg/mL],zone of inhibition at 50 µg/disc (Aspergillus niger) [mm],zone of inhibition at 50 µg/disc (Mycolicibacterium vaccae) [mm],zone of inhibition at 50 µg/disc (Staphylococcus aureus [10]) [mm],zone of inhibition at 50 µg/disc [12] [mm],zone of inhibition at 50 µg/disc (Aspergillus terreus) [mm],GI50 (K562) [µg/mL],zone of inhibition at 50 µg/disc (Enterococcus faecalis) [mm],zone of inhibition at 50 µg/disc (Escherichia coli) [mm],further results
CCCCCC/C=C\[N+]([O-])=N\[C@@H](COC)[C@H](C)O [ELAIOMYCIN],0,0,0,0,4.97,4.93,35.1,4.69,0,0,10,30.4,0,14,0,12,0,> 50,0,0,pIC50 [7]: 4.83; pIC50 [8]: 5.03; pIC50 [9]: 5.10; pIC50 [11]: 5.04; pIC50 [13]: < 4.52; pIC50 [14]: 4.99; pIC50 [15]: 5.01; pIC50 [16]: 4.98; pIC50 [17]: 4.83
COC[C@H](/N=[N+](\[O-])CCCCCCC(C)=O)[C@H](C)O [ELAIOMYCIN G],0,0,0,0,,,> 50,,0,0,0,> 50,0,11,0,13,0,> 50,0,0,
CCCCCC(O)/C=C/[N+]([O-])=N/[C@@H](COC)[C@H](C)O (stereo partly specified) [ELAIOMYCIN E],0,0,0,10,,,> 50,,0,0,10,31.2,0,0,0,0,0,30.3,10,0,
COC[C@H](/N=[N+]([O-])/C=C/CCCCC(C)=O)[C@H](C)O [ELAIOMYCIN D],0,0,0,0,,,> 50,,0,0,0,> 50,0,0,0,0,0,> 50,0,0,
CCCCCCCC/[N+]([O-])=N/[C@@H](COC)[C@H](C)O [ELAIOMYCIN F],0,0,0,0,,,30.5,,0,0,0,> 50,0,0,0,0,0,> 50,0,0,
CCCCCCCC/[N+]([O-])=N/[C@@H](COC)C(N)=O [ELAIOMYCIN H],13,0,0,0,5.43,5.01,40.5,5.27,0,0,0,38.2,0,12,0,14,15,37.5,0,0,pIC50 [7]: 5.05; pIC50 [8]: 5.92; pIC50 [9]: 5.33; pIC50 [11]: 5.10; pIC50 [13]: 5.02; pIC50 [14]: 5.22; pIC50 [15]: 5.94; pIC50 [16]: 5.40; pIC50 [17]: 5.07
